# Source: patent US20010049357A1, “Use of Hsp27 as an anti-inflammatory agent” (priority 1999, published 2001)
# Where two headings read alike, the source gives them in different places.
# Experiments:
# human MØ [1] = test: IL-10 production by human MØ (ELISA of culture supernates); type: cell-based
# human MØ [2] = test: TNFα production by human MØ (ELISA of culture supernates); type: cell-based
# p38 MAPK = test: Immunoblot for activation (phosphorylation) of p38 MAPK in human MØ; type: cell-based; conditions: after addition of Hsp 27 2 μg/ml
# Experimental: (§1) Monocytes (1.5×10^6 cells) were cultured in serum free medium for 2 hrs and then stimulated with Hsp 27 (2 μg/ml) for different time periods (1 min to 3 hrs). Western blot analysis was performed, essentially as described previously (29). Briefly, cells were lysed using a buffer consisting of 1% Nonidet P-40, 50 mM HEPES (pH 7.2), 100 mM NaCl, 2 mM EDTA, 1 mM pyrophosphate, 2 mM Na3VO4, 10 mM NaF, 1 mM PMSF, 10 μg/ml leupeptin and 10 μg/ml aprotinin. Postnuclear supernates were harvested after centrifugation of the lysate for 15 min at 14,000 g at 4° C. Equal amounts of postnuclear lysates were boiled for 5 min in the presence of SDS sample buffer (reducing) and subjected to SDS-12% PAGE and then transferred to nitrocellulose membrane (Millipore Corp, Bedford, Mass.) in transfer buffer [25 mM Tris, 192 mM glycine, pH 8.3, 20% (V/V) methanol]. Membranes were first rinsed in TTBS (TBS with 0.1% Tween 20) and then blocked for 1 hr at room temperature in TTBS-5% W/V nonfat dry milk. The membrane was then incubated overnight at 4° C. with antiphospho-p38 MAPK antibody (rabbit polyclonal; New England Biolab) (1:1000 dilution in TTBS-1% BSA). Antibody-antigen complexes were detected with the aid of HRP-conjugated anti-rabbit secondary antibody (1:2000 dilution) (New England Biolab) followed by detection of the bands with ECL reagent (NEN Life Science Products). […]
# (§2) To assess the activation (phosphorylation) of three different mitogen-activated protein kinases (MAPK)—p38, p44/42 (Erk 1/2) and p46/54 (SAPK/JNK-1/2) after Hsp 27 addition, we stimulated human MØ at different time points and measured activated p38, Erk 1/2 and JNK 1/2 using the respective antibodies against the phosphorylated forms of the MAPKs. […]
# MØ = MØ conversion (differentiation) into immature dendritic cells by IL-4 plus GM-CSF; type: cell-based; conditions: Hsp27 added to MØ cultures at the initiation of conversion
# Source text: In a preferred method for obtaining dendritic cells in vitro, isolated MØ are are first stimulated to undergo conversion (differentiation) into immature dendritic cells, and then stimulated to mature into fully active or competent dendritic cells. Conversion can be stimulated or promoted in vitro by any effective treatment. For example, conversion can be promoted by treating the MØ with an effective amount of IL-4 and an effective amount of GM-CSF, in accordance with conventional techniques. Typically, the IL-4 and GM-CSF treatment is for approximately 3-4 days. One indication of conversion is expression of CD1a. For guidance concerning in vitro conversion of MØ to immature dendritic cells, see, e.g., Chapius et al., 1997, Eur. J. Immunol. 27:431-441.
# (§3) Hsp27 added to MØ cultures at the initiation of conversion inhibited differentiation of MØ to dendritic cells mediated or promoted by the combination of IL-4 plus GM-CSF.
# p46/54 (SAPK/JNK-1/2) = test: Immunoblot for activation (phosphorylation) of SAPK/JNK in human MØ; type: cell-based
# Experimental: as §1, §2
# immature dendritic cells = test: Maturation of immature dendritic cells (CD83 expression); type: cell-based
# Experimental: Preferably, the MØ are not brought into contact with Hsp27 before their conversion into immature dendritic cells, because Hsp27 inhibits the conversion. After conversion, however, Hsp27 acts as a potent promoter of maturation by the immature dendritic cells. […] Dendritic cell maturation is detectable as early as 24 hours after initiation of Hsp27 treatment. Preferably, however, Hsp27-induced maturation is allowed to proceed for 48 to 72 hours. One useful indication of dendritic cell maturation is expression of CD83.
# as §3
# [3] = test system: IL-10 mRNA in human monocytes; test: RNAse protection assay of IL-10 mRNA in human monocytes; type: cell-based
# MAPKAPKinase-2 = type: cell-based, human
# Normal control monocytes = type: cell-based, human
# p44/42 (Erk 1/2) = test: Immunoblot for activation (phosphorylation) of Erk 1/2 in human MØ; type: cell-based; conditions: after addition of Hsp 27 2 μg/ml
# Experimental: Monocytes (1.5×10^6 cells) were cultured in serum free medium for 2 hrs and then stimulated with Hsp 27 (2 μg/ml) for different time periods (1 min to 3 hrs). Western blot analysis was performed, essentially as described previously (29). Briefly, cells were lysed using a buffer consisting of 1% Nonidet P-40, 50 mM HEPES (pH 7.2), 100 mM NaCl, 2 mM EDTA, 1 mM pyrophosphate, 2 mM Na3VO4, 10 mM NaF, 1 mM PMSF, 10 μg/ml leupeptin and 10 μg/ml aprotinin. Postnuclear supernates were harvested after centrifugation of the lysate for 15 min at 14,000 g at 4° C. […] Antibody-antigen complexes were detected with the aid of HRP-conjugated anti-rabbit secondary antibody (1:2000 dilution) (New England Biolab) followed by detection of the bands with ECL reagent (NEN Life Science Products). […]
# as §2
# [4] = after addition of Hsp 27 2 μg/ml
compound,measurement,setting,value
"COc1cccc(-c2cc(=O)c3ccccc3o2)c1N [PD98059, reference compound]",effect on Hsp 27 induced MØ IL-10 production,human MØ [1],did not have any inhibitory effect
same,TNFα induced by Hsp 27 blocked,human MØ [2]; inhibitor 10 μM for 2 hrs before Hsp 27 2 μg/ml,68%
"C[S+]([O-])c1ccc(-c2nc(-c3ccncc3)c(-c3ccc(F)cc3)[nH]2)cc1 (centres unmarked) [SB203580, reference compound]",inhibition of Hsp 27 induced MØ IL-10 production,human MØ [1],approximately 80%
same,TNFα induced by Hsp 27 blocked,human MØ [2],90%
TNFα,increase in IL-10 levels,human MØ [1]; exogenous addition of 100 U/ml TNFα,1.5 fold
heat shock protein-27 [Hsp 27],persistence of p38 MAPK activation,p38 MAPK,up to 180 min
same,time at which p38 MAPK phosphorylation was clearly increased,p38 MAPK,20 min
same,time of maximal stimulation of p38 MAPK,p38 MAPK,40 min
same,IL-10(pg/10^6 cells/ml) x ± SEM,human MØ [1],5267 ± 610 pg/10^6 cells/ml
same,MØ IL-10 production,human MØ [1],approximately 3400 pg/ml
same,increase in IL-10 as compared to SEB+MDP,human MØ [1],approximately 3 fold
same,increase in IL-10 relative to SEB+MDP,human MØ [1],2.5-3.5
same,optimum concentration for Hsp 27 induced MØ IL-10 production,"human MØ [1]; dose-dependent, FIG. 1B",1 to 5 µg/mL
same,effect on differentiation of MØ to dendritic cells promoted by IL-4 plus GM-CSF,MØ,inhibited
same,time at which JNK 1/2 phosphorylation was clearly increased,p46/54 (SAPK/JNK-1/2); [4],20 min
same,time of maximal stimulation of JNK 1/2,p46/54 (SAPK/JNK-1/2); [4],40 min
same,induction of P-p54 JNK,p46/54 (SAPK/JNK-1/2); compared to activation of p38 and Erk,only minimal
same,effect on maturation of immature DC to mature antigen-presenting DC,immature dendritic cells; Hsp27 added after initial differentiation into DC (day 4 of induction),strongly promoted
same,time at which dendritic cell maturation is detectable,immature dendritic cells; after initiation of Hsp27 treatment,≥ 24 h
same,IL-10 mRNA levels relative to control MDP+SEB induced levels,[3],3.2 fold
same,increase in IL-10 mRNA levels compared to only adherence stimulated MØ,"[3]; Hsp 27 2 μg/ml, 8-9 hrs",~7.2 fold
same,MØ TNFα production,human MØ [2]; 16-18 hrs,483 ± 74 pg/mL
same,MAPKAPKinase-2 activity versus adherence stimulated untreated MØ lysate,MAPKAPKinase-2,significantly increased
same,IL-12(pg/10^6 cells/ml) x ± SEM,Normal control monocytes,3428 ± 1102 pg/10^6 cells/ml
same,increase in IL-12 as compared to SEB+MDP,Normal control monocytes,approximately 3 fold
same,increase in IL-12 relative to SEB+MDP,Normal control monocytes,2.5-3.5
same,time at which Erk 1/2 phosphorylation was clearly increased,p44/42 (Erk 1/2),20 min
same,time of maximal stimulation of Erk 1/2,p44/42 (Erk 1/2),40 min
polymyxin B [reference compound],effect on Hsp 27 induced MØ IL-10 production,human MØ [1]; polymyxin B 200 U/ml together with Hsp 27 2 μg/ml,could not inhibit
